Source: paper PMC5618191 (Toxins, 2017)

Columns and labels:
[1] = system: CT-26-derived tumor allografts; assay: CT-26 allograft mouse model; type: in vivo, BALB/c mice
Description: (§1) For the allograft experiment, 4 × 10^5 CT-26 cells were resuspended in 50 µL RPMI medium and injected subcutaneously into the right flank of eight, 6–8 weeks old, male BALB/c mice that were obtained from Harlan Laboratories (San Pietro al Natisone, Italy). Likewise, in the xenograft experiment, 1 × 10^6 KB-3-1 cells in 50 µL RPMI medium were injected subcutaneously into the right flank of eight, 6–8 weeks old, male CB-17/IcrHanHsd-Prkdc severe combined immunodeficiency (SCID) mice. Of each group, four animals were randomly assigned to the control or to the treatment group. […] All animals were kept under pathogen-free conditions and all procedures were performed in a laminar flow hood. Effects of the treatment were assessed by daily recording of tumor size with a microcaliper and parameters indicating the animals’ overall health condition (e.g., body weight, fatigue, grooming, ragged coat, food and fluid consumption). Tumor volumes (mm^3) were calculated using the formula: (length × width^2)/2. […] The tumor mass was weighed and organs and tissues for immunohistochemical experiments were fixed in 4% formalin/PBS (Roti®-Histofix 4%, Roth, Karlsruhe, Germany) or shock-frozen in liquid nitrogen and stored at −80 °C until the samples were prepared for LC-MS/MS analysis. The experiments were approved by the ethics committee of the Austrian Federal Ministry of Science, Research, and Economy (BMWF-66.009/0084-II/3b/2013, date of approval: 5 September 2013) and performed in line with the Arrive guidelines for animal care and protection and with guidelines from the Austrian Animal Science Association and from the Federation of European Laboratory Animal Science Associations (FELASA).
(§2) From each mouse from both the control (n = 4) and the treatment group (n = 4), tissue samples were formalin-fixed, paraffin-embedded and used to prepare serial 3 µm sections. Then, slices were deparaffinized and rehydrated. To evaluate the percentages of interphase/resting, mitotic and dead (apoptotic/necrotic) cell fractions in tumor specimens, sections were stained with hematoxylin and eosin (H/E) by means of standard protocols. Numbers of the three cell fractions were analyzed in a blinded setup in at least four images of H/E-stained tumor sections, taken under a 40 × objective microscope lens. In addition, for the quantification of areas of dead tumor tissue in whole tumor sections, the H/E-stained slides were scanned with a Pannoramic MIDI automated slide scanner (3[…], Budapest, Hungary) and evaluated using Definiens’ TissueStudio® 4.0 (Definiens®, Munich, Germany) software and Pannoramic Viewer (3[…]) software. To evaluate the fraction of apoptotic cells in tumor sections a terminal deoxynucleotidyl transferase (TdT) deoxyuridine triphosphate (dUTP) nick end labeling (TUNEL) assay was performed applying the In Situ Cell Death Kit TMR (red) (Roche Diagnostics, Mannheim, Germany) according to the manufacturer’s protocol. Afterwards, slides were covered with Vectashield anti-fade mounting medium with DAPI (H-1200, Vector Laboratories, Burlingame, CA, USA). Slides were protected from light until they were scanned with a Pannoramic MIDI automated slide scanner (3[…]) and analyzed via digital image analysis software (Definiens’ TissueStudio® 4.0, Definiens®). In order to visualize the proliferative cell fraction (cells in the interphase or M-phase) of tumors, KB-3-1 tumor sections were stained with the Ki-67 (clone MiB-1) antibody from DAKO (1:100; Glostrup, Denmark) and for CT-26 tumor sections with Ki-67 (1:100; D3B5, rabbit, Cell Signaling, Danvers, USA). The primary antibody was incubated for 30 min at room temperature in a humid chamber and after rinsing the slides for 3 min in PBS + 0.1% Tween, the UltraVision LP detection system was applied according to the manufacturer’s instructions (Thermo Fisher Scientific, Massachusetts, MA, USA). Sections were counterstained with hematoxylin. […]

[2] = system: KB-3-1-derived tumor xenografts; assay: KB-3-1 xenograft mouse model; type: in vivo, CB-17/SCID mice
Description: as §1, §2

KB-3-1 cells [3] = system: KB-3-1 cells; set-up: method as in PMID 19517454; conditions: two-year in vitro selection process; cited from earlier work
KB-3-1 cells [4] = assay: Cell cycle analysis (PI staining, flow cytometry); type: cell-based, human; conditions: KB-3-1, subtoxic concentrations
Description: 1. Supplementary Materials and Methods
KB-3-1 cells (3.5x105/per well) were seeded into 6-well plates and treated the next day with the […]
After incubation at 37°C for another 24 h, cells were trypsinized, centrifuged (8 min, 300g, RT) and fixed in 70% ethanol and stored at -20°C overnight.
Fixed cells were centrifuged (1 min, 6000g) and resuspended in 100 µL of 0.9% NaCl. RNA was digested with 0.2 mg/mL of RNase for 30 min at 37°C. DNA was stained with propidium iodide (PI, 0.01 mg/mL, Sigma-Aldrich St. Louis, Missouri, USA) for 30 min at 4°C in the dark. Afterwards, cells were analyzed by flow cytometry using FACS Calibur (BD Biosciences, Franklin Lakes, New Jersey, USA) as described previously. CellQuest Pro software (BD Biosciences) was utilized to determine percentages of the respective cell cycle phases. […]
The following primary […]
antibodies specific for the following targets were diluted 1:1000 in TBST/3% BSA (w/v): PARP, Bak, Bax, Bim, Bcl-xL (polyclonal, Cell Signaling Technology, Beverly, MA, USA), caspase 9, cl. caspase 9 (monoclonal, Cell Signaling Technology) and β-actin (monoclonal, Clone AC-15, Sigma-Aldrich).
Secondary horseradish peroxidase-labeled antibodies (goat anti-rabbit or anti-mouse, Santa Cruz Biotechnology, Dallas, Texas, TX, USA) were diluted 1:10,000 in TBST/1% BSA. […]

beauvericin
Average tumor weight reduction ([1]; 5 mg/kg bw/day i.p., day 14, vs untreated, p = 0.057): 60%
Reduction of mean tumor volume ([1]; 5 mg/kg bw/day i.p., two cycles, day 14, vs solvent control): 52.8%
Higher rate of scattered cells with signs of cell death (apoptosis or necrosis) in viable tumor regions ([1]; H/E, treated vs control, p < 0.05): 22%
Ki-67-positive (proliferating) tumor cells ([1]; treated group, tumor sections, control 66.9 ± […]): 81.6 ± 3.7%
Mitotic cells in H/E-stained tumor sections ([1]; treated group, control 0.4 ± 0.1%): 0.3 ± 0.2%
Increase of average apoptosis rate (TUNEL) in viable tumor areas ([1]; treated versus untreated, p = 0.065): 2.1 fold
Increase of necrotic areas in H/E-stained whole tumor sections ([1]; treated vs control, p < 0.05): 2.2 fold
Mean tumor weight lowered ([2]; 5 mg/kg bw/day, day 16, vs control, p = 0.152): 31.2%
Reduction in tumor volume ([2]; 5 mg/kg bw/day, two cycles, day 16): 31.3%
Percentages of apoptotic/necrotic cells within viable areas (H/E) ([2]; treated vs control): almost no difference
Increase of TUNEL-positive cells ([2]; treated vs control, p = 0.143): 1.5 fold
Increase of proportion of necrotic areas in H/E-stained whole tumor sections ([2]; treated vs control, significant): 34.2%
Ki-67-positive cells ([2]; treatment group, tumor sections, control 99.5 ± 0.6%): 98.8 ± 0.6%
Mitotic cells in H/E-stained tumor sections ([2]; treatment group, control 1.5 ± 0.4%): 1.3 ± 0.3%
Acquisition of resistance (KB-3-1 cells [3]): did not induce beauvericin-unresponsiveness
Cell cycle effect (KB-3-1 cells [4]): cell cycle arrest in the G0/G1-phase
